{"source": "ChEMBL document CHEMBL2440103", "about": "“Synthesis, docking, and biological studies of phenanthrene β-diketo acids as novel HIV-1 integrase inhibitors” (Bioorg Med Chem Lett, 2013)", "key": {"[1]": {"biological_target": "T1, Human immunodeficiency virus type 1 integrase (Human immunodeficiency virus 1, UniProt Q7ZJM1)", "T1 sequence (Q7ZJM1 whole entry)": "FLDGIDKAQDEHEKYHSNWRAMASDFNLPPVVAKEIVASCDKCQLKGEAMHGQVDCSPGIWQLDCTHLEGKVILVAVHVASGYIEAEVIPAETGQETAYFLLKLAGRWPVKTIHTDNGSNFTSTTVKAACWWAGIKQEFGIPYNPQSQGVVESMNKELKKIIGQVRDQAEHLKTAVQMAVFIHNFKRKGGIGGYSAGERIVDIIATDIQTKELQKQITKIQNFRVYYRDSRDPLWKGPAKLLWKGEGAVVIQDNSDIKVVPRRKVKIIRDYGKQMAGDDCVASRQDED", "assay": "Inhibition of Human immunodeficiency virus 1 integrase-mediated 3'-processing after 30 mins by polyacrylamide gel electrophoresis"}, "[2]": {"biological_target": "T1, Human immunodeficiency virus type 1 integrase", "assay": "Inhibition of Human immunodeficiency virus 1 integrase strand transfer activity after 30 mins by polyacrylamide gel electrophoresis"}, "PBMC": {"test_system": "PBMC", "assay": "Cytotoxicity against human PBMC", "assay_type": "cell-based"}, "Vero": {"test_system": "Vero", "assay": "Cytotoxicity against african green monkey Vero cells", "assay_type": "cell-based", "details": "Chlorocebus sabaeus"}, "[3]": {"biological_target": "Human immunodeficiency virus type 1 integrase (Human immunodeficiency virus 1) (UniProt Q7ZJM1)", "sequence (Q7ZJM1 as listed by the source)": "as the sequence (Q7ZJM1 whole entry) above", "assay": "Selectivity ratio of IC50 for Human immunodeficiency virus 1 integrase-mediated 3'-processing to IC50 for Human immunodeficiency virus 1 integrase strand transfer activity"}, "[4]": {"test_system": "Human immunodeficiency virus 1", "assay": "Antiviral activity against Human immunodeficiency virus 1 infected in human PBMC assessed as inhibition of viral replication after 5 days by RT-PCR method", "assay_type": "functional, organism-based", "details": "Human immunodeficiency virus 1, 120 h"}, "CCRF-CEM": {"test_system": "CCRF-CEM", "assay": "Cytotoxicity against human CEM cells", "assay_type": "cell-based"}}, "data": [{"smiles": "O=C(O)C(=O)CC(=O)c1ccc2ccc3c(F)cccc3c2c1", "values": [{"measurement": "IC50", "setting": "[1]", "result": 11, "unit": "µM"}, {"measurement": "IC50", "setting": "[2]", "result": 3, "unit": "µM"}]}, {"smiles": "O=C(O)C(=O)CC(=O)c1ccc2ccc3ccccc3c2c1F", "values": [{"measurement": "IC50", "setting": "[1]", "result": 83, "unit": "µM"}, {"measurement": "IC50", "setting": "[2]", "result": 63, "unit": "µM"}]}, {"smiles": "Cc1cn([C@H]2C[C@H](N=[N+]=[N-])[C@@H](CO)O2)c(=O)[nH]c1=O", "note": "[ZIDOVUDINE]", "values": [{"measurement": "IC50", "setting": "PBMC", "result": "> 100", "unit": "µM"}]}, {"smiles": "O=C(O)C(=O)CC(=O)c1ccc2c(ccc3cc(Cl)ccc32)c1", "values": [{"measurement": "IC50", "setting": "Vero", "result": 7.2, "unit": "µM"}, {"measurement": "IC50", "setting": "PBMC", "result": 14.1, "unit": "µM"}, {"measurement": "IC50", "setting": "[1]", "result": 12, "unit": "µM"}, {"measurement": "Ratio IC50", "setting": "[3]", "result": 9}, {"measurement": "IC50", "setting": "[2]", "result": 1.4, "unit": "µM"}, {"measurement": "EC50", "setting": "[4]", "result": 20.9, "unit": "µM"}, {"measurement": "IC50", "setting": "CCRF-CEM", "result": 12.1, "unit": "µM"}]}, {"smiles": "O=C(O)C(=O)CC(=O)c1ccc2c(ccc3ccc(Cl)cc32)c1", "values": [{"measurement": "IC50", "setting": "Vero", "result": 4.5, "unit": "µM"}, {"measurement": "IC50", "setting": "PBMC", "result": 4, "unit": "µM"}, {"measurement": "IC50", "setting": "[1]", "result": 5, "unit": "µM"}, {"measurement": "IC50", "setting": "[2]", "result": 1.3, "unit": "µM"}, {"measurement": "EC50", "setting": "[4]", "result": 27.5, "unit": "µM"}, {"measurement": "IC50", "setting": "CCRF-CEM", "result": 13.1, "unit": "µM"}]}, {"smiles": "O=C(O)C(=O)CC(=O)c1ccc2c(ccc3c(F)cccc32)c1", "values": [{"measurement": "IC50", "setting": "[1]", "result": 35, "unit": "µM"}, {"measurement": "IC50", "setting": "[2]", "result": 4, "unit": "µM"}]}, {"smiles": "O=C(O)C(=O)CC(=O)c1ccc2c(ccc3c(Cl)cccc32)c1", "values": [{"measurement": "IC50", "setting": "[1]", "result": 19, "unit": "µM"}, {"measurement": "IC50", "setting": "[2]", "result": 4, "unit": "µM"}]}, {"smiles": "COc1ccc2c(c1)cc(C(=O)CC(=O)C(=O)O)c1ccccc12", "values": [{"measurement": "IC50", "setting": "[1]", "result": 32, "unit": "µM"}, {"measurement": "IC50", "setting": "[2]", "result": 3, "unit": "µM"}]}, {"smiles": "O=C(O)C(=O)CC(=O)c1ccc2ccc3c(Cl)cccc3c2c1", "values": [{"measurement": "IC50", "setting": "[1]", "result": 11, "unit": "µM"}, {"measurement": "IC50", "setting": "[2]", "result": 1.2, "unit": "µM"}]}, {"smiles": "O=C(O)C(=O)CC(=O)c1ccc2ccc3cc(F)ccc3c2c1F", "values": [{"measurement": "IC50", "setting": "[1]", "result": 63, "unit": "µM"}, {"measurement": "IC50", "setting": "[2]", "result": 8, "unit": "µM"}]}, {"smiles": "COc1ccc2c(c1)cc(C(=O)CC(=O)C(=O)O)c1c(F)cccc12", "values": [{"measurement": "IC50", "setting": "[1]", "result": 44, "unit": "µM"}, {"measurement": "IC50", "setting": "[2]", "result": 6, "unit": "µM"}]}]}
